Reference: patent publication US20140179681A1, “METHODS AND COMPOSITIONS OF TARGETED DRUG DEVELOPMENT” (priority 2010, published 2014)
Counter-ions that a name gives are not always drawn. Like-named read-outs stand apart in the source and are kept apart here.

Columns and labels:
MDBK line = assay: MTT Cell Proliferation Assay, MDBK cells; assay type: cell-based, bovine
Procedure, shortened: (§1)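 Viability was measured by mitochondrial MTT reduction after cells were exposed to compound for 3 days in reduced-serum medium. Inhibition was calculated per plate against 0.5% DMSO controls.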

[1] = test system: epithelial carcinoma A431 cell line; assay: MTT Cell Proliferation Assay, A431 cells; assay type: cell-based; conditions: for MTT Assay IC50(A431/MDBK): ratio in parentheses: ratio MDBK IC50 / A431 IC50 (selectivity)
Procedure, shortened: as §1

EGFR = molecular target: T1, EGFR (Homo sapiens, UniProt P00533); assay: EGFR in-cell Western (ICW) screening protocol (EGFR inhibition assay); assay type: cell-based; set-up: ICW 1 / ICW 2 / ICW Avg: unit not given here; conditions: for ICW Avg / ICW 1 / ICW 2: ICW assay; for ICW Avg: average of runs 1 and 2; for ICW 1: run 1; for ICW 2: run 2; for ICW assay: Table 10, % Inhibition of EGF dependent EGFR phosphorylation in A431 cells, compound 125 μM in assay
T1 construct: host or cells: A431
Procedure, shortened: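 Serum-starved A431 cells (2 h) were pretreated with compound for 4 h at 37° C, then stimulated with EGF (10 ng/ml final, or 6.6 or 12.5 ng/ml in some runs) for 10 min. After formaldehyde fixation, phospho-EGFR (Tyr1173, or Tyr1045 in some runs) and total EGFR were detected by in-cell Western immunostaining.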

[2] = Bos taurus, MDBK, MDBK cells, second value of cell, read-out: MTT Assay IC50(A431/MDBK): MDBK
[3] = Homo sapiens, A-431, A431 cells, first value of cell, read-out: MTT Assay IC50(A431/MDBK): A431
[4] = Bos taurus, MDBK, second value of 'a/b (c)', taken as MDBK cells, read-out: MTT Screen, second value of cell
[5] = Homo sapiens, A-431, first value of 'a/b (c)', taken as A431 cells, read-out: MTT Screen, first value of cell
[6] = Bos taurus, MDBK, 72 h, Table 10, second of x/y(ratio): MDBK, three day treatment, unit not printed (doses in μM), read-out: MTT assay (second value)
[7] = Homo sapiens, A-431, 72 h, Table 10, first of x/y(ratio): A431, three day treatment, unit not printed (doses in μM), read-out: MTT assay (first value)

T1 sequence (P00533 25-1210): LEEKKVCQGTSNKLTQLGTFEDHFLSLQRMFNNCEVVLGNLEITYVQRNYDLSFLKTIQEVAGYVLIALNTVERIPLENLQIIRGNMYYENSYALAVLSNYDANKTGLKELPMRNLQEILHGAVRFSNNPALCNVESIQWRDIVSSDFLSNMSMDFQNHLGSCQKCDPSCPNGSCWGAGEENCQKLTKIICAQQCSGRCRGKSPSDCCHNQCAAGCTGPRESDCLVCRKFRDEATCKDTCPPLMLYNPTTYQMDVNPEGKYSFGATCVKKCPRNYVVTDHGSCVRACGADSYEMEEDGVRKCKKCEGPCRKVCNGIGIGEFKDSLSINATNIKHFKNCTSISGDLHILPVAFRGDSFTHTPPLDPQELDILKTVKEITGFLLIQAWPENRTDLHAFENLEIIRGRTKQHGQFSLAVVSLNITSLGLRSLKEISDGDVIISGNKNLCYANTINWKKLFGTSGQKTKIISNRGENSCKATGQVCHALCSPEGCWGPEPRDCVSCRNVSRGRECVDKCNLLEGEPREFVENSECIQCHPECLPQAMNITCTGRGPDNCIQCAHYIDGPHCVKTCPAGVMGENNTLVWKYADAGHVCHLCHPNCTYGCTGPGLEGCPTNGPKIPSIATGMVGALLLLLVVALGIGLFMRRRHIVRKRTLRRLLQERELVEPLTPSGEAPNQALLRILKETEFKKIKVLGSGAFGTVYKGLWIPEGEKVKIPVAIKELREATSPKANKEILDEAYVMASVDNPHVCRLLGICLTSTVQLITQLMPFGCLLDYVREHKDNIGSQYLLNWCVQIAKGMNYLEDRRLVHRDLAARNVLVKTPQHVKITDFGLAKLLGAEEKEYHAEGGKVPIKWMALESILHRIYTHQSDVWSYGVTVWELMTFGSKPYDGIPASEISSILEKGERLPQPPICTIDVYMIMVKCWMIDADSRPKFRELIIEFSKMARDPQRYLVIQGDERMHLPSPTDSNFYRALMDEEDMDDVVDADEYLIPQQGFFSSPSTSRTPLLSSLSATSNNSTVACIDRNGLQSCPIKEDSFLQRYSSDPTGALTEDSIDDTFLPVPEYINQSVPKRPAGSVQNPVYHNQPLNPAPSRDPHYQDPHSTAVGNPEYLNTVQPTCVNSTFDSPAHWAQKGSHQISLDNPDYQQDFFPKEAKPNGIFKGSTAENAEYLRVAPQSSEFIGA

Structure (SMILES) | IC50 (MDBK line; [2]) | IC50 [1, 3] | MTT Assay IC50(A431/MDBK): ratio in parentheses [1] | ICW Avg (EGFR) | ICW 1 (EGFR) | ICW 2 (EGFR) | other results
C=CCc1c(C)nc(Nc2nc(C)c3cccc(C)c3n2)[nH]c1=O [12607 + TFA] | 11.8 µM | 16.6 µM | 0.71 | 32.62 | 38.40 | 26.85 | 
C=CCc1c(C)nc(Nc2nc(C)c3ccccc3n2)[nH]c1=O [12610 + TFA] | 19.6 µM | 50.4 µM | 0.39 | 31.33 | 41.25 | 21.42 | 
Cc1ccc2c(C)nc(Nc3nc(CSc4nnc(C)s4)cc(=O)[nH]3)nc2c1 [compound 11469] | 11.5 µM | 10.1 µM | 1.13 | 25.25 | 26.79 | 23.71 | 
COC(=O)Cc1cc(=O)nc(Nc2nc(C)c3ccccc3n2)[nH]1 [compound 11609] | 24.3 µM | 36 µM | 0.68 | 27.23 | 28.83 | 25.63 | 
CN1CCN(S(=O)(=O)c2ccc(NC(=S)NC(=O)/C=C/c3ccccc3)cc2)CC1 [AD4-12145] |  |  |  |  |  |  | IC50 (MDBK line; [4]): 41.8 µM; IC50 [1, 5]: 40.5 µM; ICW Screen (ICW Inhibition) (EGFR): 30.469
Cc1nc(Nc2nc(CSc3ccccn3)cc(=O)[nH]2)nc2ccccc12 [12623 + TFA] | 17 µM | 37.2 µM | 0.46 | 28.49 | 21.11 | 35.88 | 
Cc1cc2nc(Nc3ncc4c(n3)CC(c3cccs3)CC4=O)nc(C)c2cc1C (stereo not drawn) [11681 + TFA] | 4.08 µM | 5.47 µM | 0.75 | 29.86 | 30.46 | 29.26 | 
Cc1ccc2nc(Nc3nc(=O)cc(-c4ccccc4)[nH]3)nc(C)c2c1 [compound 11601] | 2.62 µM | 1.29 µM |  | 56.08 | 58.11 | 54.06 | IC50 (MDBK line; Bos taurus, MDBK, MDBK cells, normalized, read-out: MTT Assay IC50 (normalized): MDBK): 2.61 µM; IC50 (MDBK line; Bos taurus, MDBK, follow-up MTT, MDBK cells, second value, read-out: MTT Follow-up: MDBK): 48.6 µM; IC50 ([1]; Homo sapiens, A-431, A431 cells, normalized, read-out: MTT Assay IC50 (normalized): A431): 0.738 µM; IC50 ([1]; Homo sapiens, A-431, follow-up MTT, A431 cells, first value, read-out: MTT Follow-up: A431): 3.67 µM; MTT Follow-up: ratio in parentheses ([1]; follow-up MTT, ratio MDBK/A431): 13.23
CCCc1c(C)nc(Nc2nc(C)c3cc(C)cc(C)c3n2)[nH]c1=O [12612 + TFA] |  |  |  | 57.36 | 69.21 | 45.51 | IC50 (MDBK line; MDBK cells, second value of cell, read-out: MTT Assay IC50(A431/MDBK): MDBK): 79.2 µM; IC50 ([1]; A431 cells, first value of cell, read-out: MTT Assay IC50(A431/MDBK): A431): 48.5 µM
O=C(NC(=S)Nc1ccc(S(=O)(=O)Nc2ccccc2)cc1)C1CC1 [AD4-12098] |  |  |  |  |  |  | IC50 (MDBK line; [4]): 16.4 µM; IC50 [1, 5]: 23.4 µM; ICW Screen (ICW Inhibition) (EGFR): 25.946
COc1ccc(CC(=O)NC(=S)Nc2ccc(S(=O)(=O)Nc3nc(C)cc(C)n3)cc2)cc1 [AD4-12266] |  |  |  |  |  |  | IC50 (MDBK line; [4]): 45.9 µM; IC50 [1, 5]: 49.6 µM; ICW Screen (ICW Inhibition) (EGFR): 29.289
CC(C)C(=O)NC(=S)Nc1ccc(S(=O)(=O)NCCc2ccccc2)cc1 [AD4-10611] |  |  |  |  |  |  | IC50 (MDBK line; [4]): 20 µM; IC50 [1, 5]: 30.9 µM; ICW Screen (ICW Inhibition) (EGFR): 38.285
O=S(=O)(Nc1ccccc1)c1ccc(NC(=S)Nc2cccc(C(F)(F)F)c2)cc1 [AD4-12835] |  |  |  |  |  |  | IC50 (MDBK line; [6]): 5.89 µM; IC50 [1, 7]: 6.15 µM; ICW assay (EGFR): 116.579
COc1ccc(NC(=S)Nc2ccc(S(=O)(=O)Nc3ccc(Cl)cc3)cc2)cc1OC [AD4-12525] |  |  |  |  |  |  | IC50 (MDBK line; [6]): 12.2 µM; IC50 [1, 7]: 14.8 µM; ICW assay (EGFR): 34.1311
Cc1ccc2nc(Nc3nc(=O)cc(CSc4ccc(Cl)cc4)[nH]3)nc(C)c2c1 [11826 + TFA] | 43.3 µM | 49.4 µM | 0.88 | 37.16 | 40.52 | 33.80 | 
CCc1nnc(NS(=O)(=O)c2ccc(NC(=S)NC(=O)/C=C/c3ccccc3)cc2)s1 [AD4-11367] |  |  |  |  |  |  | IC50 (MDBK line; [4]): 43.6 µM; IC50 [1, 5]: 43.3 µM; ICW Screen (ICW Inhibition) (EGFR): 46.872
Cc1ccc2nc(Nc3nc(CSc4ncccn4)cc(=O)[nH]3)nc(C)c2c1 [compound 11751] | 6.31 µM | 9.88 µM | 0.64 | 25.51 | 25.87 | 25.14 | 
